The values below come from US3962249A, “1-(3-Phenylpropyl)-4-furoylpiperazine derivatives” (Kyorin Seiyaku Kabushiki Kaisha, priority 1974, dated 1976).

The nature of data set [1]: acute toxicity, LD50 in mice by subcutaneous injection (Up and Down method). In kind it is in vivo. Particulars: mouse, sc, drugs dissolved in physiological saline. The protocol:
**) LD50 in mice by subcutaneous injection of the drugs (calculated
by the Up and Down method). Drugs are dissolved in physiological saline

In data set [2] the test system is acetic acid-induced writhing. The data set is described as follows: inhibition of acetic acid-induced writhing counts in mice (analgesic effect). In kind it is in vivo. Particulars: Mus musculus, read-out: ED50 (50% Effective dose).

As for `C[C@@H]1CN(CCCc2ccccc2)[C@@H](C)CN1C(=O)c1ccco1.Cl` (relative stereo) [Example 2, trans-1-(3-Phenylpropyl)-2,5-dimethyl-4-(2-furoyl)-piperazine hydrochloride], the LD50 (usually the dose expected to kill half of the subjects tested) in data set [1] was above 500 mg/kg. Further, in data set [2], the ED50 (in general, the dose at which the effect has come halfway, by size or by number of responders) was determined as 1.52 mg/kg.
Turning to `Cc1ccccc1CCCN1C[C@@H](C)N(C(=O)c2ccco2)C[C@@H]1C.Cl` (relative stereo) [Example 15, trans-1-[3-(o-Methylphenyl)propyl]-2,5-dimethyl-4-(2-furoyl)piperazine hydrochloride], the median lethal dose (LD50) in data set [1] is above 750 mg/kg. Moreover, the 50% effective dose (ED50) in data set [2] stood at 1 mg/kg.
For `Cc1cccc(CCCN2C[C@@H](C)N(C(=O)c3ccco3)C[C@@H]2C)c1.Cl` (relative stereo) [Example 16, trans-1-[3-(m-Methylphenyl)propyl]-2,5-dimethyl-4-(2-furoyl)piperazine hydrochloride] the same measures were above 500 mg/kg and 1.05 mg/kg.
Take `Cl.O=C(c1ccco1)N1CCN(CCCc2ccccc2)CC1` [Example 1, 1-(3-Phenylpropyl)-4-(2-furoyl)piperazine hydrochloride]: the LD50 in data set [1] is 400 mg/kg. For the same compound, the ED50 in data set [2] is 7.8 mg/kg.
On the same counts, the results for `CC1CN(C(=O)c2ccco2)CCN1CCCc1ccccc1` (stereo not drawn) [Example 3, 1-(3-Phenylpropyl)-2-methyl-4-(2-furoyl)piperazine] are 300 mg/kg and 5.17 mg/kg.
For `CC1CN(CCCc2ccccc2)CCN1C(=O)c1ccco1.Cl` (stereo not drawn) [Example 4, 1-(3-Phenylpropyl)-3-methyl-4-(2-furoyl)piperazine hydrochloride] the same measures were above 750 mg/kg and 3.42 mg/kg.
`CC1(C)CN(CCCc2ccccc2)CCN1C(=O)c1ccco1.Cl` [Example 5, 1-(3-Phenylpropyl)-3,3-dimethyl-4-(2-furoyl)piperazine hydrochloride] had a 50% lethal dose (LD50) in data set [1] above 500 mg/kg. For the same compound, the ED50 in data set [2] came out at 2.2 mg/kg.
On the same counts, the results for `Cc1ccccc1CCCN1CCN(C(=O)c2ccco2)CC1.Cl` [Example 7, 1-[3-(o-Methylphenyl)propyl]-4-(2-furoyl)piperazine hydrochloride] are 400 mg/kg and 3 mg/kg.
On the same counts, the results for `Cc1cccc(CCCN2CCN(C(=O)c3ccco3)CC2)c1.Cl` [Example 8, 1-[3-(m-Methylphenyl)propyl]-4-(2-furoyl)piperazine hydrochloride] are 350 mg/kg and 3.35 mg/kg.
For `CCOc1ccc(CCCN2CCN(C(=O)c3ccco3)CC2)cc1.Cl` [Example 9, 1-[3-(p-Ethoxyphenyl)propyl]-4-(2-furoyl)piperazine hydrochloride] the same measures were 400 mg/kg and 8.85 mg/kg.
In data set [1], `Cc1occc1C(=O)N1CCN(CCCc2ccccc2)CC1.Cl` [Example 11, 1-(3-Phenylpropyl)-4-(2-methyl-3-furoyl)piperazine hydrochloride] gave an LD50 of 170 mg/kg. Besides, in data set [2], the ED50 was determined as 1.81 mg/kg.
In turn, `Cc1cc(C(=O)N2CCN(CCCc3ccccc3)CC2)co1.Cl` [Example 12, 1-(3-Phenylpropyl)-4-(5-methyl-3-furoyl)piperazine hydrochloride] gave an LD50 in data set [1] of 200 mg/kg. The ED50 in data set [2] stood at 3.93 mg/kg.
